Data reported in US20250339470A1, “METHODS AND COMPOSITIONS FOR MATURING CARDIOMYOCYTES” (President and Fellows of Harvard College, priority 2024, published 2025).
“Also recorded” adds a separate entry of the source.

Tests used:
hiPSC-CMs = test: qPCR mRNA expression of hiPSC-CMs cultured 7 days on SAP-coated plates; type: cell-based, human; conditions: 7 days on 0.25% SAP coating; control Geltrex
Experimental: At day 14 of cardiomyocyte differentiation, completion of the protocol was confirmed. Fully beating cardiomyocyte embryoid bodies were dissociated using the cardiomyocyte dissociation kit (STEMdiff Cardiomyocyte Dissociation Kit, […] Technologies, Canada) and reseeded (1.2 million cells/well) onto 6-well plates, which were prepared as follows. Each 6-well plate had 3 wells coated with Geltrex (control) and 3 wells coated with one of four self-assembling peptides (SAPs) at 0.25% concentration such that the differentiated cardiomyocytes would be cultured with the SAP. Specifically, the following SAPs were used in this study: RADA16, IEIK13, KLD12, and QLEL12. The cells were maintained for further in vitro analysis. Total RNA was extracted 7 days after initial exposure to each SAP to analyze messenger RNA (mRNA) expression of cardiomyocyte genes characteristics of an adult-like state. The inventors used Tryzol (TRIzol Reagent, Invitrogen, USA) to extract total RNA and a purification kit (E.Z.N.A. Total RNA kit I, Omega Bio-tec, Inc., Georgia, USA) according to the manufacturer's instructions. After quantification, RNA was reverse transcribed to cDNA using the High-Capacity cDNA Reverse Transcription Kit (Applied Biosystems) according to the manufacturer's instructions. Quantitative Polymerase Chain Reaction (qPCR) was performed in triplicate for each sample using the iTaq Universal SYBR Green Supermix (Bio-Rad) and the primer pairs (table S3) with a Bio-Rad CFX384 Real-Time thermal cycler. Double delta analyses were performed to compute the relative mRNA expression of each target gene using glyceraldehyde-3-phosphate dehydrogenase (GAPDH) as a housekeeping control gene.

[1] = system: hiPSC-CMs transplanted into rat hearts; test: Electrophysiological recording with flexible mesh nanoelectronics (Langendorff); type: in vivo; conditions: 3 months after transplantation into the athymic rat heart
Experimental: The inventors used RNU nude rats (8-10 weeks old, male, 250-350 g). Rats received cyclosporine injections (15 mg/kg) as an immunosuppressant a day before the injection and every day after surgery. […] After at least five days of observation in healthy conditions, the rats were applied to the electrophysiological study. […] As a pre-surgical analgesic, buprenorphine (0.1 mg/kg) was administered to the rats before anesthesia. […] The distal ascending aorta was ligated with a 4-0 silk suture, followed by infusion of heparin to coronary arteries, with the right atrium cut open to infuse efficiently with decreased right atrium pressure. […] The temperature of the circulated solution, the chamber of the Langendorff, and the heart rate were monitored with a data acquisition system (Bridge Amp (PowerLab 8/30, ADInstruments, USA), Bio Amp (Product code: FE231, ADInstruments, USA), Spring Clip Electrodes (Product code: MLA1214, AD ADInstruments, USA), and LabChart software v8.1.20) until the heart beating became stable. […] The inventors analyzed the electrophysiological data with a customized Python script. […] The inventors then detected electrical spikes using “find_peaks” from Scipy. The inventors manually curated the detected spikes into host sinus rhythm, automaticity/arrhythmia rhythm, and noises. […] The spikes were recorded at both the injection and reference sites. • 2. […]

[2] = system: hiPSC-CMs injected into the rat left ventricle wall; test: Sarcomere organization (SOTA), orientation and length of injected hiPSC-CMs; type: in vivo; conditions: 7 days post-injection
Experimental: The sections were stained with anti-cardiac troponin T antibody (Alexa Fluor 647 Mouse Anti-Cardiac Troponin T (cat #565744): cTnT, BD Pharmagen. 1:200), anti-human troponin I antibody (Recombinant Anti-Cardiac Troponin I antibody [EP1106Y] (ab52862): hTnI, Abcam 1:250), and DAPI as performed in the immunofluorescent staining. […] In this study, the inventors applied SarcOmere Texture Analysis (SOTA) to quantify sarcomere organization (17). SOTA was conducted by independent investigators who had no prior knowledge of the sample information. This methodological approach minimized potential biases and enhanced the reliability of the results.
hiPSC-CMs were stained with hTnI to identify myofilaments. […]
Sarcomere length was measured as the distance between hTnI-stained Z-lines from cardiomyocytes with visible sarcomere structures. An average of 10 sarcomeres from each sample was calculated on an interpolated YZ projection to account for spatial distribution across different regions of the image (45). […]
The inventors performed the automated analysis of sarcomere organization using SOTA, which was previously validated in endogenous, direct reprogrammed, and induced pluripotent-derived cardiomyocytes (17). […] The inventors also calculated the primary sarcomere orientation using the SOTA angle of peak prominence. […]

IEIK13
expression of KCNJ2 (hiPSC-CMs): significantly higher

KLD12
expression of KCNJ2 (hiPSC-CMs): significantly higher

RADA16
expression of GJA1 (hiPSC-CMs): significantly higher in the RADA16 group compared to all other SAP groups and the control group; also recorded: highest expression
expression of KCNJ2 (hiPSC-CMs): significantly higher; also recorded: highest expression
expression of NANOG (hiPSC-CMs): significantly lower in the RADA16 and control groups than in the IEIK13 group; also recorded: no significant difference between the control and RADA16 group; also recorded: significantly declined
ratio of MYH7 mRNA expression to MYH6 expression (hiPSC-CMs): significantly higher in the RADA16 group than in the IEIK13 and QLEL12 groups; also recorded: not significantly different between the RADA16 and control groups nor the RADA16 and KLD12 groups; also recorded: most pronounced increase
ratio of TNNI3 to TNNI1 expression (hiPSC-CMs): higher TNNI3/TNNI1 expression ratio
ventricular bigeminy [1]: not observed
sarcomere length [2]: not associated with a difference
